# Values of other authors in patent US20020090388A1, “Intravascular drug delivery device and use therefor” (priority 2000, published 2002).
# Tested on: primary pulmonary hypertension
# Conditions: patients with primary pulmonary hypertension
compound,measurement,value
CC#CCC(C)[C@H](O)/C=C/[C@@H]1[C@H]2C/C(=C/CCCC(=O)O)C[C@H]2C[C@H]1O (stereo partly shown) [Iloprost],mean level of dose required to provide significant therapeutic benefits,2.1 ng/kg/min
